Test results published in patent US7803930B2, “Antisense modulation of apolipoprotein B-expression” (Isis Pharmaceuticals, Inc., priority 2002, dated 2010).
In the oligonucleotide strings, read from the 5' end, every base follows the letter of its sugar. An asterisk marks phosphorothioate; unmarked linkages are phosphodiester. Other units and linkages are bracketed, terminal groups are in braces. A string of capitals states the bases alone. e = 2'-O-(2-methoxyethyl) (MOE); [5mC] = 5-methylcytosine; d = 2'-deoxy (DNA); r = 2'-OH (RNA)

How the values were obtained:
Format in all cases: cell-based
[1] = system: human apolipoprotein B mRNA; assay: Inhibition of apolipoprotein B mRNA by dsRNAs in HepG2 cells; conditions: 150 nM with 3.75 μg/mL LIPOFECTIN
Procedure: In accordance with the present invention, a series of nucleic acid duplexes comprising the antisense compounds of the present invention and their complements were designed to target apolipoprotein B and are shown in Table 42. All compounds in Table 42 are oligoribonucleotides 20 nucleotides in length with phosphodiester internucleoside linkages (backbones) throughout the compound. The compounds were prepared with blunt ends. […] These sequences are shown to contain uracil (U) but one of skill in the art will appreciate that uracil (U) is generally replaced by thymine (T) in DNA sequences. “Targer site” indicates the first (5′-most) nucleotide number on the particular target sequence to which the compound binds. A subset of the compounds in Table 42 are the RNA equivalents of DNA antisense oligonucleotides described herein, and, where applicable, this is noted by the ISIS # of the DNA oligonucleotide in the column “RNA equivalent of ISIS #”.
The dsRNA compounds in Table 42 were tested for their effects on human apolipoprotein mRNA in HepG2 cells. HepG2 cells were treated with 100 nM of dsRNA compounds mixed with 5 μg/mL LIPOFECTIN (Invitrogen Corporation, Carlsbad, Calif.) for a period of 16 hours. In the same experiment, HepG2 cells were also treated with 150 nM of subset of the antisense oligonucleotides described herein mixed with 3.75 μg/mL LIPOFECTIN; these compounds are listed in Table 43. Control oligonucleotides included ISIS 18078 ([…], SEQ ID NO: 888). ISIS 18078 is a chimeric oligonucleotide (“gapmer”) 20 nucleotides in length, composed of a central “gap” region consisting of 9 2′-deoxynucleotides, which is flanked on the 5′ and 3′ ends by a five-nucleotide “wing” and a six-nucleotide “wing”, respectively. The wings are composed of 2′-methoxyethyl (2′-MOE)nucleotides. The internucleoside (backbone) linkages are phosphorothioate (P═S) throughout the oligonucleotide. All cytidines are 5-methylcytidines. The duplex of ISIS 263188 ([…], SEQ ID NO: 889) and its complement was also used as a control. ISIS 263188 is an oligoribonucleotide 21 nucleotides in length with the 2 nucleotides on the 3′ end being oligodeoxyribonucleotides (TT) and with phosphodiester internucleoside linkages (backbones) throughout the compound.
Cells were treated for 4 hours, after which human apolipoprotein B mRNA expression was measured as described by examples herein. Results were normalized to untreated control cells, which were not treated with LIPOFECTIN or oligonucleotide.

[2] = system: human apolipoprotein B mRNA; assay: Inhibition of human apolipoprotein B mRNA levels in HepG2 cells, quantitative real-time PCR; conditions: for % INHIB (inhibition of human apolipoprotein B mRNA levels): HepG2 cells treated with 150 nM of compound, averages from two experiments, quantitative real-time PCR; for % inhibition 37 nM / % inhibition 75 nM / % inhibition 150 nM / % inhibition 300 nM: Table 19 dose response, HepG2 cells, normalized to untreated control
Procedure, shortened: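 HepG2 cells at 80% confluency were transfected with antisense oligonucleotide using 3.75 μg/mL Lipofectin in Opti-MEM for 4-7 h and harvested 16-24 h after treatment. Apolipoprotein B mRNA was measured by real-time RT-PCR and normalized to GAPDH or RiboGreen total RNA. Percent inhibition came from untreated-control standard curves.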

[3] = system: human apolipoprotein B mRNA; assay: Apolipoprotein B mRNA in primary human hepatocytes, real-time PCR
Procedure: In accordance with the present invention, antisense oligonucleotides targeted to human apolipoprotein B were tested in dose response studies in primary human hepatocytes. Pre-plated primary human hepatocytes were purchased from Invitro Technologies (Baltimore, Md.). Cells were cultured in high-glucose DMEM (Invitrogen Corporation, Carlsbad, Calif.) supplemented with 10% fetal bovine serum (Invitrogen Corporation, Carlsbad, Calif.), 100 units/mL and 100 μg/mL streptomycin (Invitrogen Corporation, Carlsbad, Calif.).
Human primary hepatocytes were treated with ISIS 301012 (SEQ ID NO: 247) at 10, 50, 150 or 300 nM. Untreated cells and cells treated with the scrambled control oligonucleotide ISIS 113529 ([…], SEQ ID NO: 859) served as two groups of control cells. ISIS 113529 is a chimeric oligonucleotide (“gapmer”) 20 nucleotides in length, composed of a central “gap” region consisting of ten 2′-deoxynucleotides, which is flanked on both sides (5′ and 3′ directions) by five-nucleotide “wings”. The wings are composed of 2′-methoxyethyl (2′-MOE)nucleotides. The internucleoside (backbone) linkages are phosphorothioate (P═S) throughout the oligonucleotide. All cytidines are 5-methylcytidines.
(§1) Oligonucleotides were introduced into cells through LIPOFECTIN-mediated transfection as described by other examples herein. Cells were harvested both 24 and 48 hours after treatment with oligonucleotide, and both RNA and protein were isolated. Additionally, the culture media from treated cells was collected for ELISA analysis of apolipoprotein B protein secretion.
Apolipoprotein B mRNA expression was determined by real-time PCR of RNA samples as described by other examples herein. Each result represents 6 experiments.
(§2) An additional experiment was performed to test the effects of ISIS 271009 (SEQ ID NO: 319), ISIS 281625 (SEQ ID NO: 224) and ISIS 301027 (SEQ ID NO: 262) on human apolipoprotein B mRNA in human primary hepatocytes. Cells were cultured as described herein and treated with 5, 10, 50 or 150 nM of ISIS 271009, ISIS 281625 or ISIS 301027 for a period of 24 hours. The control oligonucleotides ISIS 13650 (SEQ ID NO: 806) and ISIS 113529 (SEQ ID NO: 859) were used at 50 or 150 nM. Human apolipoprotein B mRNA expression was evaluated by real-time PCR as described by other examples herein. Apolipoprotein B protein secreted into the cultured cell media was measured in the samples treated with 50 and 150 nM of oligonucleotide, using a target protein specific ELISA kit (ALerCHEK Inc., Portland, Me.).

[4] = system: apolipoprotein B protein; assay: Apolipoprotein B protein secreted from primary human hepatocytes, ELISA; conditions: for % Inhibition of apolipoprotein B protein secretion: 24 hours
Procedure: as §1
Apolipoprotein secreted from into the cultured cell media was measured in the samples treated with 50 and 150 nM of oligonucleotide, using a target protein specific ELISA kit (ALerCHEK Inc., Portland, Me.). Each result represents 3 experiments.
as §2

[5] = system: human apolipoprotein(a) mRNA; assay: Apolipoprotein(a) mRNA expression in primary human hepatocytes, real-time PCR; conditions: human primary hepatocytes; 5, 10, 50 or 150 nM, 24 hours
Procedure: Primary human hepatocytes (InVitro Technologies, Baltimore, Md.), cultured and transfected as described herein, were treated with 5, 10, 50 or 150 nM of ISIS 271009 (SEQ ID NO: 319), 281625 (SEQ ID NO: 224), 301012 (SEQ ID NO: 247) or 301027 (SEQ ID NO: 262). Cells were also treated with 50 or 150 nM of the control oligonucleotides ISIS 113529 (SEQ ID NO: 859) or ISIS 13650 (SEQ ID NO: 806). Untreated cells served as a control. Following 24 hours of oligonucleotide treatment, apolipoprotein(a) mRNA expression was measured by quantitative real-time PCR as described in other examples herein.
Probes and primers to human apolipoprotein(a) were designed to hybridize to a human apolipoprotein(a) sequence, using published sequence information (GenBank accession number NM_005577.1, incorporated herein as SEQ ID NO: 860). For human apolipoprotein(a) the PCR primers were: […]
forward primer: […] (SEQ ID NO: 861)
reverse primer: TGCGTCTGAGCATTGCGT (SEQ ID NO: 862) and the PCR probe was: FAM-[…]-TAMRA (SEQ ID NO: 863) where FAM is the fluorescent dye and TAMRA is the quencher dye.
Data are the average of three experiments and are expressed as percent inhibition relative to untreated controls.

[6] = system: Cynomolgous monkey apolipoprotein B mRNA; assay: Apolipoprotein B mRNA in primary Cynomolgous monkey hepatocytes, real-time PCR; conditions: Cynomolgous monkey primary hepatocytes; 10, 50 and 150 nM, 24 hours
Procedure: Antisense inhibition by ISIS 301012 was compared to that of ISIS 326358, which is a perfect match to the Cynomolgous monkey apolipoprotein B sequence to which ISIS 301012 hybridizes. The compounds were analyzed for their effect on Cynomolgous monkey apolipoprotein B mRNA levels in primary Cynomolgous monkey hepatocytes purchased from In Vitro Technologies ([…].). Pre-plated primary Cynonomolgous monkey hepatocytes were purchased from InVitro Technologies (Baltimore, Md.). Cells were cultured in high-glucose DMEM (Invitrogen Corporation, Carlsbad, Calif.) supplemented with 10% fetal bovine serum (Invitrogen Corporation, Carlsbad, Calif.), 100 units/mL and 100 μg/mL streptomycin (Invitrogen Corporation, Carlsbad, Calif.).
Primary Cynomolgous monkey hepatocytes were treated with 10, 50, 150 or 300 nM of antisense oligonucleotides for 48 hours. ISIS 113529 (SEQ ID NO: 859) was used as a control oligonucleotide. Untreated cells also served as a control. Cynomolgous monkey apolipoprotein B mRNA levels were quantitated by real-time PCR using the human apolipoprotein B and GAPDH primers and probes described by other examples herein. The results, shown in Table 44, are the average of 6 experiments and are expressed as percent inhibition of apolipoprotein B mRNA normalized to untreated control cells.
In a further embodiment of the invention, antisense inhibition by ISIS 281625 was compared to that by ISIS 315089, which is a perfect match to the Cynomolgous monkey apolipoprotein B sequence to which ISIS 281625 hybridizes. Primary Cynomolgous monkey hepatocytes, cultured as described herein, were treated with 10, 50, 150 or 300 nM of ISIS 315089 or ISIS 281625 for 24 hours. Cells were treated with the control oligonucleotide ISIS 13650 (SEQ ID NO: 806) at 150 and 300 nM or ISIS 113529 (SEQ ID NO: 859) at 300 nM. Untreated cells also served as a control. Cynomolgous monkey apolipoprotein B mRNA levels in primary Cynomolgous monkey hepatocytes was quantitated using real-time PCR with human primers and probe as described by other examples herein. The results, shown in Table 46, are the average of 3 experiments and are expressed as percent inhibition of apolipoprotein B mRNA normalized to untreated control cells.
ISIS 271009 (SEQ ID NO: 319) and ISIS 301027 (SEQ ID NO: 262) were also tested for their effects on apolipoprotein B mRNA and protein expression in Cynomolgous primary hepatoctyes. Cells, cultured as described herein, were treated with 10, 50 and 150 nM of ISIS 271009 or ISIS 301027 for 24 hours. Cells were treated with the control oligonucleotide ISIS 113529 (SEQ ID NO: 859) at 150 nM. Untreated cells also served as a control. Cynomolgous monkey apolipoprotein B mRNA levels in primary Cynomolgous monkey hepatocytes was quantitated using real-time PCR with human primers and probe as described by other examples herein. The results, shown in Table 48, are the average of 2 experiments and are expressed as percent inhibition of apolipoprotein B mRNA normalized to untreated control cells.

Substance	% Inhibition of apolipoprotein B mRNA [1] [%]	% INHIB (inhibition of human apolipoprotein B mRNA levels) [2] [%]	% inhibition 37 nM [2] [%]	% inhibition 75 nM [2] [%]	% inhibition 150 nM [2] [%]	% inhibition 300 nM [2] [%]	further results
18078 (antisense eG*eT*eG*e[5mC]*eG*d[5mC]*dG*d[5mC]*dG*dA*dG*d[5mC]*d[5mC]*d[5mC]*eG*eA*eA*eA*eT*e[5mC]) [compound 18078]	13						
263188 (rCrUrUrCrUrGrGrCrArUrCrCrGrGrUrUrUrArGdTdT; siRNA) [compound 263188]	26						
301014 (e[5mC]*eA*eG*e[5mC]*e[5mC]*d[5mC]*d[5mC]*dG*d[5mC]*dA*dG*dG*dT*d[5mC]*d[5mC]*e[5mC]*eG*eG*eT*eG; antisense) [compound 301014]	88	88	75	90	96	98	
301021 (eG*eG*eT*e[5mC]*e[5mC]*dA*dT*d[5mC]*dG*d[5mC]*d[5mC]*dA*dG*d[5mC]*dT*eG*e[5mC]*eG*eG*eT; antisense) [compound 301021]	67	89					
301028 (eG*eG*e[5mC]*eT*e[5mC]*dA*d[5mC]*dT*dG*dT*dA*dT*dG*dG*dT*eT*eT*eT*eA*eT; antisense) [compound 301028]	85	93	70	79	85	92	
GCCTCAGTCTGCTTCGCGCC (2'-MOE gapmer, further chemistry not given here) [ISIS 271009]							% Inhibition of apolipoprotein B mRNA expression ([3]; 5 nM, 24 hours, "+" = expression increased): +4%; % Inhibition of apolipoprotein B mRNA expression ([3]; 10 nM, 24 hours (Table 37)): 5%; % Inhibition of apolipoprotein B mRNA expression ([3]; 50 nM, 24 hours (Table 37)): 52%; % Inhibition of apolipoprotein B mRNA expression ([3]; 150 nM, 24 hours (Table 37)): 81%; apolipoprotein B mRNA expression ([3]; 5, 10, 50 or 150 nM, 24 hours): inhibit apolipoprotein B mRNA expression in a dose-dependent manner; % Inhibition of apolipoprotein B protein secretion ([4]; 50 nM): 17%; % Inhibition of apolipoprotein B protein secretion ([4]; 150 nM, "+" = increased): 32%; secretion of apolipoprotein B protein from cells (ELISA) ([4]; 50 and 150 nM): inhibit the secretion of apolipoprotein B protein from cells in a dose-dependent manner; expression of apolipoprotein(a) mRNA [5]: inhibited apolipoprotein(a) expression at the highest dose; inhibition of apolipoprotein B mRNA expression [6]: in a dose-dependent manner
